Biological target: T1, recombinant murine Aurora A enzyme (Mus musculus, UniProt P97477)
T1 construct: hexahistidine (His6) (N); made in house; host or cells: insect cells, baculovirus (Bac-to-Bac, Invitrogen)
Assay: Aurora A DELFIA Kinase Assay
Assay type: biochemical
Details: mouse Aurora A, 250 μM ATP; threshold less than or equal to 100 nM; read-out: IC50
From the text: Recombinant mouse Aurora A with an amino-terminus hexahistidine tag (His-Aurora A) was expressed using a standard baculovirus vector and insect cell expression system (Bac-to-Bac®, Invitrogen).
Soluble, recombinant mouse Aurora A was purified from insect cells using Ni-NTA agarose (Qiagen) as described by the manufacturer and further purified over an S75 size exclusion column (Amersham Pharmacia Biotech).
Aurora A DELFIA® Kinase Assay
The enzymatic reaction mixture, with and without Aurora inhibitors, was incubated for 15 minutes at room temperature before termination with 100 μL of stop buffer (1% BSA, 0.05% Surfact-AMPS-20, and 100 mM EDTA). A total of 100 μL of the enzyme reaction mixture was transferred to wells of a Neutravidin-coated 96-well plate (Pierce) and incubated at room temperature for 30 minutes. The wells were washed with wash buffer (25 mM Tris, 150 mM sodium chloride, and 0.1% Tween 20) and incubated for 1 hour with 100 μL of antibody reaction mixture containing 1% BSA, 0.05% Surfact-AMPS-20, anti-phospho-PKA rabbit polyclonal antibody (1:2000, New England Biolabs), and europium labeled anti-rabbit IgG (1:2000, Perkin Elmer). The wells were washed and then the bound europium was liberated using 100 μL of Enhancement Solution (Perkin Elmer). Quantification of europium was done using a Wallac™ EnVision (Perkin Elmer).

T1 sequence (P97477 whole entry): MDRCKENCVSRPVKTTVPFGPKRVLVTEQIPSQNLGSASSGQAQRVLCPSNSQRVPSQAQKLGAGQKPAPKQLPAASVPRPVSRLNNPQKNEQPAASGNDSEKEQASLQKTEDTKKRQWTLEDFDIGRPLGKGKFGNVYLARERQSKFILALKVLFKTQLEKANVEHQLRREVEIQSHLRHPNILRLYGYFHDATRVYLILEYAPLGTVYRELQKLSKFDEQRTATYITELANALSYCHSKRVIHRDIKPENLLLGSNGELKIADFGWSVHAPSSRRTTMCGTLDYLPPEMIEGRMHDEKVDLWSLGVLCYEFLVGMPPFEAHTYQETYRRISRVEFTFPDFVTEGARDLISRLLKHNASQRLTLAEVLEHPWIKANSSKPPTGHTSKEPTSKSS

IC50, ≤ 100 nM:
O=C(O)C1CCCN1C(=O)c1ccc(Nc2ncc3c(n2)-c2ccc(Cl)cc2C(c2ccccc2F)=NC3)cc1 (stereo not drawn) [Compound I-112, 1-{4-[9-Chloro-7-(2-fluoro-phenyl)-5H-benzo[c]pyrimido[4,5-e]azepin-2-ylamino]-benzoyl}-pyrrolidine-2-carboxylic acid]
CC1CN(C(=O)c2ccc(Nc3ncc4c(n3)-c3ccc(Cl)cc3C(c3ccccc3F)=NC4)cc2)CCN1 (stereo not drawn) [Compound I-113, {4-[9-Chloro-7-(2-fluoro-phenyl)-5H-benzo[c]pyrimido[4,5-e]azepin-2-ylamino]-phenyl}-(3-methyl-piperazin-1-yl)-methanone]
CN(CCCN)C(=O)c1ccc(Nc2ncc3c(n2)-c2ccc(Cl)cc2C(c2ccccc2F)=NC3)cc1 [Compound I-117, N-(3-Amino-propyl)-4-[9-chloro-7-(2-fluoro-phenyl)-5H-benzo[c]pyrimido[4,5-e]azepin-2-ylamino]-N-methyl-benzamide]
CN1CCC(N(C)C(=O)c2ccc(Nc3ncc4c(n3)-c3ccc(Cl)cc3C(c3ccccc3F)=NC4)cc2)CC1 [Compound I-128, 4-[9-Chloro-7-(2-fluoro-phenyl)-5H-benzo[c]pyrimido[4,5-e]azepin-2-ylamino]-N-methyl-N-(1-methyl-piperidin-4-yl)-benzamide]
CNCCCNC(=O)c1ccc(Nc2ncc3c(n2)-c2ccc(Cl)cc2C(c2ccccc2F)=NC3)cc1 [Compound I-130, 4-[9-Chloro-7-(2-fluoro-phenyl)-5H-benzo[c]pyrimido[4,5-e]azepin-2-ylamino]-N-(3-methylamino-propyl)-benzamide]
O=C(O)c1ccc(Nc2ncc3c(n2)-c2ccc(Cl)cc2C(c2c(F)cccc2F)=NC3)cc1 [Compound I-135, 4-[9-Chloro-7-(2,6-difluoro-phenyl)-5H-benzo[c]pyrimido[4,5-e]azepin-2-ylamino]-benzoic acid]
CN1CCN(C(=O)Cc2ccc(Nc3ncc4c(n3)-c3ccc(Cl)cc3C(c3ccccc3F)=NC4)cc2)CC1 [Compound I-145, 2-{4-[9-Chloro-7-(2-fluoro-phenyl)-5H-benzo[c]pyrimido[4,5-e]azepin-2-ylamino]-phenyl}-1-(4-methyl-piperazin-1-yl)-ethanone]
O=C(NCCc1c[nH]cn1)c1ccc(Nc2ncc3c(n2)-c2ccc(Cl)cc2C(c2ccccc2F)=NC3)cc1 [Compound I-147, 4-[9-Chloro-7-(2-fluoro-phenyl)-5H-benzo[c]pyrimido[4,5-e]azepin-2-ylamino]-N-[2-(1H-imidazol-4-yl)-ethyl]-benzamide]
Cc1ccc2c(c1)C(c1ccccc1F)=NCc1cnc(Nc3ccc(C(=O)NCCN4CCOCC4)cc3)nc1-2 [Compound I-148, 4-[7-(2-Fluoro-phenyl)-9-methyl-5H-benzo[c]pyrimido[4,5-e]azepin-2-ylamino]-N-(2-morpholin-4-yl-ethyl)-benzamide]
CN(CCc1ccccn1)C(=O)c1ccc(Nc2ncc3c(n2)-c2ccc(Cl)cc2C(c2ccccc2F)=NC3)cc1 [Compound I-160, 4-[9-Chloro-7-(2-fluoro-phenyl)-5H-benzo[c]pyrimido[4,5-e]azepin-2-ylamino]-N-methyl-N-(2-pyridin-2-yl-ethyl)-benzamide]
O=C(NCCc1ccccn1)c1ccc(Nc2ncc3c(n2)-c2ccc(Cl)cc2C(c2ccccc2F)=NC3)cc1 [Compound I-161, 4-[9-Chloro-7-(2-fluoro-phenyl)-5H-benzo[c]pyrimido[4,5-e]azepin-2-ylamino]-N-(2-pyridin-2-yl-ethyl)-benzamide]
CN1CCN(C(=O)c2cccc(Nc3ncc4c(n3)-c3ccc(Cl)cc3C(c3ccccc3F)=NC4)c2)CC1 [Compound I-163, {3-[9-Chloro-7-(2-fluoro-phenyl)-5H-benzo[c]pyrimido[4,5-e]azepin-2-ylamino]-phenyl}-(4-methyl-piperazin-1-yl)-methanone]
O=C(c1ccc(Nc2ncc3c(n2)-c2ccc(Cl)cc2C(c2ccccc2F)=NC3)cc1)N1CCN(CCN2CCCC2)CC1 [Compound I-171, 9-Chloro-7-(2-fluorophenyl)-N-(4-{[4-(2-pyrrolidin-1-ylethyl)piperazin-1-yl]carbonyl}phenyl)-5H-pyrimido[5,4-d][2]benzazepin-2-amine]
O=C(O)c1ccc(Nc2ncc3c(n2)-c2ccc(Cl)cc2C(c2c(F)cccc2Cl)=NC3)cc1 [Compound I-174, 4-{[9-Chloro-7-(2-chloro-6-fluorophenyl)-5H-pyrimido-[5,4-d][2]benzazepin-2-yl]amino}benzoic acid]
CC1CN(C(=O)c2ccc(Nc3ncc4c(n3)-c3ccc(Cl)cc3C(c3c(F)cccc3F)=NC4)cc2)CC(C)N1 (stereo not drawn) [Compound I-175, 9-Chloro-7-(2,6-difluorophenyl)-N-{4-[(3,5-dimethylpiperazin-1-yl)carbonyl]phenyl}-5H-pyrimido[5,4-d][2]benzazepin-2-amine]
CN(C)C1CCN(C(=O)c2ccc(Nc3ncc4c(n3)-c3ccc(Cl)cc3C(c3c(F)cccc3F)=NC4)cc2)C1 (stereo not drawn) [Compound I-176, 9-Chloro-7-(2,6-difluorophenyl)-N-(4-{[3-(dimethylamino)pyrrolidin-1-yl]carbonyl}phenyl)-5H-pyrimido[5,4-d][2]benzazepin-2-amine]
COc1cccc(F)c1C1=NCc2cnc(Nc3ccc(C(=O)N4CC(C)NC(C)C4)cc3)nc2-c2ccc(Cl)cc21 (stereo not drawn) [Compound I-177, 9-Chloro-N-{4-[(3,5-dimethylpiperazin-1-yl)carbonyl]phenyl}-7-(2-fluoro-6-methoxyphenyl)-5H-pyrimido[5,4-d][2]benzazepin-2-amine]
COc1cccc(F)c1C1=NCc2cnc(Nc3ccc(C(=O)N4CCC(N(C)C)C4)cc3)nc2-c2ccc(Cl)cc21 (stereo not drawn) [Compound I-178, 9-Chloro-N-(4-{[3-(dimethylamino)pyrrolidin-1-yl]carbonyl}phenyl)-7-(2-fluoro-6-methoxyphenyl)-5H-pyrimido[5,4-d][2]benzazepin-2-amine]
COc1cccc(F)c1C1=NCc2cnc(Nc3ccc(C(=O)N4CC(N(C)C)C4)cc3)nc2-c2ccc(Cl)cc21 [Compound I-179, 9-Chloro-N-(4-{[3-(dimethylamino)azetidin-1-yl]carbonyl}phenyl)-7-(2-fluoro-6-methoxyphenyl)-5H-pyrimido[5,4-d][2]benzazepin-2-amine]
CN(C)C1CN(C(=O)c2ccc(Nc3ncc4c(n3)-c3ccc(Cl)cc3C(c3c(F)cccc3F)=NC4)cc2)C1 [Compound I-180, 9-Chloro-7-(2,6-difluorophenyl)-N-(4-{[3-(dimethylamino)azetidin-1-yl]carbonyl}phenyl)-5H-pyrimido[5,4-d][2]benzazepin-2-amine]
O=C(c1ccc(Nc2ncc3c(n2)-c2ccc(Cl)cc2C(c2ccccc2F)=NC3)cc1)N1CCN(CCCN2CCCCC2)CC1 [Compound I-181, {4-[9-Chloro-7-(2-fluoro-phenyl)-5H-benzo[c]pyrimido[4,5-e]azepin-2-ylamino]-phenyl}-[4-(3-piperidin-1-yl-propyl)-piperazin-1-yl]-methanone]
